Data as given in ChEMBL document CHEMBL2321869, “Ion channels as therapeutic targets: a drug discovery perspective” (J Med Chem, 2013).
pEC50, pIC50: −log10 of the molar value.

Legend:
[1] = target: T1, Sodium channel protein type 3 subunit alpha (Rattus norvegicus, UniProt P08104); experiment: Binding affinity to rat inactivated voltage-gated Na channel 1.3 expressed in human HEK293 cells by patch-clamp technique; format: cell-based
[2] = target: T2, Sodium channel protein type 9 subunit alpha (Homo sapiens, UniProt Q15858); experiment: Binding affinity to human inactivated voltage-gated Na channel 1.7 expressed in HEK293 cells by patch-clamp technique; format: cell-based
[3] = target: Sodium channel protein type 10 subunit alpha (Rattus norvegicus, UniProt Q62968); experiment: Binding affinity to voltage-gated Na channel 1.8 in Sprague-Dawley rat L4/L5 DRG neurons by patch-clamp technique
[4] = target: T2, Sodium channel protein type 9 subunit alpha; experiment: Inhibition of human voltage-gated Na channel 1.7 by cell based patch clamp technique
[5] = target: Sodium channel protein type 5 subunit alpha (Homo sapiens, UniProt Q14524); experiment: Inhibition of human voltage-gated Na channel 1.5 by cell based patch clamp technique
[6] = target: T3, Sodium channel protein type 2 subunit alpha (Homo sapiens, UniProt Q99250); experiment: Inhibition of human voltage-gated Na channel 1.2 by cell based patch clamp technique
[7] = target: GABA-A receptor; alpha-2/beta-3/gamma-2 (Homo sapiens, UniProt P18507+P28472+P47869); experiment: Modulation of human GABAA alpha2beta3gamma2 expressed in xenopus oocytes assessed as potentiation of GABA-evoked chloride currents; format: cell-based, Oocyte
[8] = target: GABA-A receptor; alpha-3/beta-3/gamma-2 (Homo sapiens, UniProt P18507+P28472+P34903); experiment: Modulation of human GABAA alpha3beta3gamma2 expressed in xenopus oocytes assessed as potentiation of GABA-evoked chloride currents; format: cell-based, Oocyte
[9] = target: GABA-A receptor; alpha-1/beta-2/gamma-2 (Homo sapiens, UniProt P14867+P18507+P47870); experiment: Modulation of human GABA-A alpha1beta2gamma2 expressed in xenopus oocytes assessed as potentiation of GABA-evoked chloride currents; format: cell-based, Oocyte
[10] = target: Gamma-aminobutyric acid receptor subunit alpha-5/beta-3/gamma-3 (Homo sapiens, UniProt P28472+P31644+Q99928); experiment: Modulation of human GABAA alpha5beta3gamma3 expressed in xenopus oocytes assessed as potentiation of GABA-evoked chloride currents; format: cell-based, Oocyte
Glutamate receptor 1 = Glutamate receptor 1 (Homo sapiens, UniProt P42261); experiment: Agonist activity at GluA1 (unknown origin)
[11] = target: Sodium channel protein type 4 subunit alpha (Homo sapiens, UniProt P35499); experiment: Inhibition of voltage-gated Na channel 1.4 (unknown origin)
[12] = target: Sodium channel protein type 1 subunit alpha (Homo sapiens, UniProt P35498); experiment: Inhibition of voltage-gated Na channel 1.1 (unknown origin)
[13] = target: Potassium voltage-gated channel subfamily KQT member 1 (Homo sapiens, UniProt P51787); experiment: Inhibition of voltage-gated K channel 7.1 (unknown origin)
[14] = target: T3, Sodium channel protein type 2 subunit alpha; experiment: Inhibition of voltage-gated Na channel 1.2 (unknown origin)
[15] = target: Sodium channel protein type 8 subunit alpha (Homo sapiens, UniProt Q9UQD0); experiment: Inhibition of voltage-gated Na channel 1.6 (unknown origin)
[16] = target: Sodium channel protein type 3 subunit alpha (Homo sapiens, UniProt Q9NY46); experiment: Inhibition of voltage-gated Na channel 1.3 (unknown origin)
[17] = target: Voltage-gated inwardly rectifying potassium channel KCNH2 (Homo sapiens, UniProt Q12809); experiment: Inhibition of human ERG channel
[18] = target: T2, Sodium channel protein type 9 subunit alpha; experiment: Inhibition of voltage-gated Na channel 1.7 (unknown origin)
[19] = target: Potassium voltage-gated channel subfamily A member 5 (Homo sapiens, UniProt P22460); experiment: Inhibition of voltage-gated K channel 1.5 (unknown origin)
[20] = target: Sodium channel protein type 1 subunit alpha (Rattus norvegicus, UniProt P04774); experiment: Inhibition of rat voltage-gated Na channel 1.1 in dorsal root ganglion neurons by patch clamp technique; format: tissue-based
[21] = target: T1, Sodium channel protein type 3 subunit alpha; experiment: Inhibition of rat voltage-gated Na channel 1.3 in dorsal root ganglion neurons by patch clamp technique; format: tissue-based

T2 sequence (Q15858 whole entry): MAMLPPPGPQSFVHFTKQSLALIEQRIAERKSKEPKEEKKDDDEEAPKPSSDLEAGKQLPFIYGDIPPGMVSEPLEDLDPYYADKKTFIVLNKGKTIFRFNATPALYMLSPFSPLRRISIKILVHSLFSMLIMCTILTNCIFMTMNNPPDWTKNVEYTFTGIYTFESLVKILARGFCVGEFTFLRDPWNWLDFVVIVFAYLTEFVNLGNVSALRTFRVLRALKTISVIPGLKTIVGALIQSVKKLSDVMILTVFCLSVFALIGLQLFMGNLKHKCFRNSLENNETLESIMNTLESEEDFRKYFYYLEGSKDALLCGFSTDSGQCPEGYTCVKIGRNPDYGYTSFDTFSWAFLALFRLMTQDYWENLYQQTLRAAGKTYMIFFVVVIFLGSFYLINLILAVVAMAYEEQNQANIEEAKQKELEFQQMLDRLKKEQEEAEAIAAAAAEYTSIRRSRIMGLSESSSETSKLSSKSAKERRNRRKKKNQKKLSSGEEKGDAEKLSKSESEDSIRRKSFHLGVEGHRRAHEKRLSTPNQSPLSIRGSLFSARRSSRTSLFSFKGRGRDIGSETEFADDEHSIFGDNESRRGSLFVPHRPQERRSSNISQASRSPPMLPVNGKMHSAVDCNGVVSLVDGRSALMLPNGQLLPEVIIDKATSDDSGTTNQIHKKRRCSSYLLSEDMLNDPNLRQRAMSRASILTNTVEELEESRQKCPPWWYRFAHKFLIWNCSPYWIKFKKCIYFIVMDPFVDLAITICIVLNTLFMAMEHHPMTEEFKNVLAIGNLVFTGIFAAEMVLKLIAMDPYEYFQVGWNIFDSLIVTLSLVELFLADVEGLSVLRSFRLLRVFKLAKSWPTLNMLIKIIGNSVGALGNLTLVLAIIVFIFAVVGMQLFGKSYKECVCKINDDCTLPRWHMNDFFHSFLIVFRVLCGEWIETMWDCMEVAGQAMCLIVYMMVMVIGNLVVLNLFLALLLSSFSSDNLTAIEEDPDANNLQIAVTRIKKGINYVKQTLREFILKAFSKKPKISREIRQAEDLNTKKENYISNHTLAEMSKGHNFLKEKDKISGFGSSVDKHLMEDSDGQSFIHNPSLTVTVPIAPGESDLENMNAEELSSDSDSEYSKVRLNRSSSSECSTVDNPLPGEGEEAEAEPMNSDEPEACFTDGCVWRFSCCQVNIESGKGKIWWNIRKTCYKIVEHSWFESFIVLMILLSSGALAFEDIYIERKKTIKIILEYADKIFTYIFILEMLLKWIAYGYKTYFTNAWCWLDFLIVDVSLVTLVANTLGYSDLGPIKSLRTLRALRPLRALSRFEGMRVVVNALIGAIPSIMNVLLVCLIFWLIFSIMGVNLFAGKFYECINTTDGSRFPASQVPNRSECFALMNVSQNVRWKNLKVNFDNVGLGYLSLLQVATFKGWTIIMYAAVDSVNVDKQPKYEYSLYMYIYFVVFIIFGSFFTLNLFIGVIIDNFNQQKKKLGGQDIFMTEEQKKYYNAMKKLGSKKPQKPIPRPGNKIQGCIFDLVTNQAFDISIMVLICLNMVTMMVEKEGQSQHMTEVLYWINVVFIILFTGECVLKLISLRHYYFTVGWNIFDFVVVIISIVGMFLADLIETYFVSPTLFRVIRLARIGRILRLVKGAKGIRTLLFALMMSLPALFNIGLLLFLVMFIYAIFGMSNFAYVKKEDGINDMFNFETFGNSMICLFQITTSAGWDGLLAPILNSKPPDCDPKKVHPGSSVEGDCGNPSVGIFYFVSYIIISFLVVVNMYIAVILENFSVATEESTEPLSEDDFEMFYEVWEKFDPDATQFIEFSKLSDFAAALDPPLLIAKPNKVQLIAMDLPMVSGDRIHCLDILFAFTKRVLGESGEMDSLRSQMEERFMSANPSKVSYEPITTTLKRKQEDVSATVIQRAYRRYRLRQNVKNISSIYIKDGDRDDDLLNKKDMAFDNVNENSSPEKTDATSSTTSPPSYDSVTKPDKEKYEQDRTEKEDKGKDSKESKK
T3 sequence (Q99250 whole entry): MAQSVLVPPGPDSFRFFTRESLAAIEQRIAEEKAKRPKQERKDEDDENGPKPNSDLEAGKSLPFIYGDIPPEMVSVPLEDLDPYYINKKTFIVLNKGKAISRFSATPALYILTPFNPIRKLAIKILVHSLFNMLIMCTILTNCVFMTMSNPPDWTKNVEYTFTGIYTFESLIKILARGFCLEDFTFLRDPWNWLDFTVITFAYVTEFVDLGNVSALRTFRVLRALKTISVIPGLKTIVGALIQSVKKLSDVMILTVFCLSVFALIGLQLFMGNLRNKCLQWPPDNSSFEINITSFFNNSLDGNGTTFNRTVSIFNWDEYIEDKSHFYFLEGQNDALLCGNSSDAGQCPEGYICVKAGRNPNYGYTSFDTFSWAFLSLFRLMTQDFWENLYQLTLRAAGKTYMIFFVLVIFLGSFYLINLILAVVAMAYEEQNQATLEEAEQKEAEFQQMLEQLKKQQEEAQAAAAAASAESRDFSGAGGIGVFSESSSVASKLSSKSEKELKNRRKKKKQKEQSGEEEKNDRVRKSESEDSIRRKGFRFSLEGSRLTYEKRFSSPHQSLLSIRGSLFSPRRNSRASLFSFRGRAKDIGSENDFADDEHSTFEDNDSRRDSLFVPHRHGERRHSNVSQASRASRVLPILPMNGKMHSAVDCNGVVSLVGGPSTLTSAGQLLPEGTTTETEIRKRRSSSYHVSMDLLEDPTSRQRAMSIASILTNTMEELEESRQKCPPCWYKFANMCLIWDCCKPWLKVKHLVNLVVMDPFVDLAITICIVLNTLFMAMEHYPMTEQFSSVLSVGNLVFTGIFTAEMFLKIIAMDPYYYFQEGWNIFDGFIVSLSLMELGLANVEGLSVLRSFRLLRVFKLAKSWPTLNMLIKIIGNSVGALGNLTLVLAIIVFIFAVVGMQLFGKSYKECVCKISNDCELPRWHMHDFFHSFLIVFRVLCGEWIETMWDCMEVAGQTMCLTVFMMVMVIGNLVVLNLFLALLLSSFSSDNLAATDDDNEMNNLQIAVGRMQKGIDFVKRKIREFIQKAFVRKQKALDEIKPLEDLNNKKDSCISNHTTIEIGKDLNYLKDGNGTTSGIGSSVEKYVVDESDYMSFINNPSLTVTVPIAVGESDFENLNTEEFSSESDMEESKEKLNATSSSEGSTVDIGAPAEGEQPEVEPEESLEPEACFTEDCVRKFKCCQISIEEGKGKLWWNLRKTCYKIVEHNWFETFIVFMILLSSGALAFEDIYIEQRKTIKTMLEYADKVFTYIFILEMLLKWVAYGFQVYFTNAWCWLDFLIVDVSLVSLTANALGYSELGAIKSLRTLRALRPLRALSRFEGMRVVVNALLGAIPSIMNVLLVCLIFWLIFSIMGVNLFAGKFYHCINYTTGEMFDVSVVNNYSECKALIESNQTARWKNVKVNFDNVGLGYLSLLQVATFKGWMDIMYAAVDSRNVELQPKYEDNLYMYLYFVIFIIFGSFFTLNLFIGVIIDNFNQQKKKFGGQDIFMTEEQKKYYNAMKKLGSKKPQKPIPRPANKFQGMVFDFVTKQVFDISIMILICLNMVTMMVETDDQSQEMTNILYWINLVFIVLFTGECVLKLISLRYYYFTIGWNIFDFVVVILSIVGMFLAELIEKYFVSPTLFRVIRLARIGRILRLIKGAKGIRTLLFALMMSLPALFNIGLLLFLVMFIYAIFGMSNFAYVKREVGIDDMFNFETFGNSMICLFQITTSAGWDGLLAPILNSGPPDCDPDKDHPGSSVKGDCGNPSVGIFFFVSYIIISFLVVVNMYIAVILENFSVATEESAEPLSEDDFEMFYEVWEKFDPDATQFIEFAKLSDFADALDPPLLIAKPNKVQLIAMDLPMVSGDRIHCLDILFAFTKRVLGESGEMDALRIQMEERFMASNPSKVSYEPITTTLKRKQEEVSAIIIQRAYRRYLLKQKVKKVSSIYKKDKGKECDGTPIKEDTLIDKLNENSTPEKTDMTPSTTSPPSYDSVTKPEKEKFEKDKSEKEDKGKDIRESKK
Chain of Potassium voltage-gated channel subfamily A member 5 (P22460 whole entry): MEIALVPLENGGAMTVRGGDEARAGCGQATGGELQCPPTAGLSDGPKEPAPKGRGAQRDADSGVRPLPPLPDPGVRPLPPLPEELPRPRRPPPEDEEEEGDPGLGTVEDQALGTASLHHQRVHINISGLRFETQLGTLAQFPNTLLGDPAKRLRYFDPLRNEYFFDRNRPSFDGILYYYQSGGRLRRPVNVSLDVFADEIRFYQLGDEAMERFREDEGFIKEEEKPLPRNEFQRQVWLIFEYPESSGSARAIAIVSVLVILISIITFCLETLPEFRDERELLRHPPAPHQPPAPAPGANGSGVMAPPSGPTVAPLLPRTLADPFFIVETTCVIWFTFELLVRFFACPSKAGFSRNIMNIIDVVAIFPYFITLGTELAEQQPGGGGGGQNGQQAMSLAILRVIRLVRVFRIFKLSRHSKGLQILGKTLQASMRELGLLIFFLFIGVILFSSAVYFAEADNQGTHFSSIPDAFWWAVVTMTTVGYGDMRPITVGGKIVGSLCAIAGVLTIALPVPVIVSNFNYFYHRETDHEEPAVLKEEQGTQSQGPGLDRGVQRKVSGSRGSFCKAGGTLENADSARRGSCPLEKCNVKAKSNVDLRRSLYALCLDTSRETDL

Compound: COC[C@@H](NC(C)=O)C(=O)NCc1ccccc1 [LACOSAMIDE]
- pIC50 [1]: 6.38
- pIC50 [2]: 6.74
- pIC50 [3]: 4.80

Compound: COc1cnc(-c2cccc3c2C[C@H](NC(=O)c2ccc(COCC(F)(F)F)nc2)CO3)cn1
- pIC50 [4]: 7.18
- pIC50 [5]: 4.89
- pIC50 [6]: < 4.48

Compound: CCN(C(C)=O)c1cccc(-c2ccnc3c(C#N)cnn23)c1 [ZALEPLON]
- pEC50 [7]: 5.79
- pEC50 [8]: < 6.00
- pEC50 [9]: 6.54
- pEC50 [10]: < 6.00

Compound: N[C@@H](C[C@@H](C/C=C/c1ccc2ccccc2c1)C(=O)O)C(=O)O
- pEC50 (Glutamate receptor 1): < 3.52

Compound: NC(=O)C(c1ccccc1)(c1ccc(F)cc1)c1ccc(F)cc1 [SENICAPOC]
- pIC50 [11]: < 6.00
- pIC50 [12]: < 6.00
- pIC50 [13]: < 6.00
- pIC50 [14]: < 6.00
- pIC50 [15]: < 6.00
- pIC50 [16]: < 6.00
- pIC50 [17]: < 6.00
- pIC50 [18]: < 6.00
- pIC50 [19]: < 6.00

Compound: O=C1[C@@H](N2CC[C@H](c3cc(Cl)cc(Cl)c3)C2)CCN1c1ccc(S(=O)(=O)Nc2nccs2)cc1
- pIC50 [20]: > 5.70
- pIC50 [21]: > 5.70
